Results: US8163756B2 (priority 2004, dated 2012)
Where a name gives a salt, the structure may show the parent alone.

Assays:
Assay type in all cases: biochemical
[1] = biological target: B-Raf(V599E) kinase (Homo sapiens, UniProt P15056, V600E); experiment: B-Raf(V599E) kinase assay B1 (construct 1, MEK1 substrate, coupled spectrophotometric)
Experimental: The test compounds were incubated with the reaction mixtureat 30° C. for 2 h. […] The reaction rate was calculated using the […] time frame. […] IC50 values were calculated from a series of percent inhibition values determined at a range of inhibitor concentrations using software routines as implemented in the GraphPad Prism software package.

[2] = biological target: T1, Abl kinase (Homo sapiens, UniProt P00519); experiment: Abl kinase assay A1 (pyruvate kinase/lactate dehydrogenase coupled, spectrophotometric); details: Method A1; read-out: Abl Data (IC50)
T1 sequence (P00519 229-512): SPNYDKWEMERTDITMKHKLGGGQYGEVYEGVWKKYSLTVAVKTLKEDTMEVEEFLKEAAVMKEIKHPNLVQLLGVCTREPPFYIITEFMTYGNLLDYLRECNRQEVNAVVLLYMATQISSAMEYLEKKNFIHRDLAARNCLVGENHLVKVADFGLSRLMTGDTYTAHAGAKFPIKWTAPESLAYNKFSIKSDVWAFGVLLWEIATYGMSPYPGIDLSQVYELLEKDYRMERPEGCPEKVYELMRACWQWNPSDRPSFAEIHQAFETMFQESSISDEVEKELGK
Experimental: (§1) IC50 values were calculated from a series of percent inhibition values determined at a range of inhibitor concentrations using software routines as implemented in the GraphPad Prism software package.

[3] = biological target: KDR kinase (Homo sapiens, UniProt P35968, DEL940-989/E990V); experiment: KDR kinase assay K2 (as K1, 2.1 nM enzyme, 2 h pre-incubation, 1.0 mM ATP); details: Method K2; read-out: KDR Data (IC50)
KDR kinase, sequence (P35968 with tags, fused parts or gaps DEL940-989/E990V): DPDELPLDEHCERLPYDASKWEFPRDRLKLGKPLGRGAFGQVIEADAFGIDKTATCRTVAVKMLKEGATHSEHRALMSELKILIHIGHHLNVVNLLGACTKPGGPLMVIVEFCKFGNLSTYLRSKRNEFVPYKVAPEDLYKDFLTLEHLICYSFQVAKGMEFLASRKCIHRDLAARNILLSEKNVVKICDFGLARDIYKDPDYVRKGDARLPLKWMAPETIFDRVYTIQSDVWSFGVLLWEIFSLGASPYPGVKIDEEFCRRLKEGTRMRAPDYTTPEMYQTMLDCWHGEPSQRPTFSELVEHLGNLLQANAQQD
Experimental: as §1

[4] = biological target: phosphorylated p-38-alpha kinase (Homo sapiens, UniProt Q16539); experiment: P-38 alpha kinase assay P1 (coupled spectrophotometric, 2 h pre-incubation); details: method P1 (2 h pre-incubation); read-out: P-38 Data
phosphorylated p-38-alpha kinase, sequence (Q16539 1-360 isoform Q16539-2): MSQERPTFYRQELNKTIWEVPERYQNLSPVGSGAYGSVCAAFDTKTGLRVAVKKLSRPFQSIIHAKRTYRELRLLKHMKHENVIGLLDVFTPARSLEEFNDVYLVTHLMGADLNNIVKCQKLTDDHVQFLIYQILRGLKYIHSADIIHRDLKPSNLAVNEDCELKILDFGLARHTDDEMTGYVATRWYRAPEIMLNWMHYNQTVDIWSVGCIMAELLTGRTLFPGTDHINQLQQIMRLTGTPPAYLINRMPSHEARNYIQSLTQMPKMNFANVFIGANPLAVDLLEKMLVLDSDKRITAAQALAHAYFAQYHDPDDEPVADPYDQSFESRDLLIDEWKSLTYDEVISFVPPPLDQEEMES

[5] = biological target: T1, Abl kinase; experiment: Abl kinase assay A2 (as A1, 1.1 nM enzyme, 2 h pre-incubation, 0.5 mM ATP)
Experimental: as §1

[6] = Method A2, read-out: Abl Data (IC50)

B-Raf(V599E) kinase, sequence (P15056 with tags, fused parts or gaps V600E): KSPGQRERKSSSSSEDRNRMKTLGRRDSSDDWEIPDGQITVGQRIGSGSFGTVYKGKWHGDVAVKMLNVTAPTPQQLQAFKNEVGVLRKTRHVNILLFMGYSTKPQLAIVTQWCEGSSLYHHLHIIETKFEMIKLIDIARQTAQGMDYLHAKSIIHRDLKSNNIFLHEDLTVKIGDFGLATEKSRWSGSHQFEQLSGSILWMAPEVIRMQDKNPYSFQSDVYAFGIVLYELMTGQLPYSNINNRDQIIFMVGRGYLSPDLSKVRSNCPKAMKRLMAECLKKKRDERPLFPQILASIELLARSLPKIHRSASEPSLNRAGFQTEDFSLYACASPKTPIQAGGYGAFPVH

SMILES: CC(C)(C)c1cc(NC(=O)Nc2ccc(Cl)cc2)n(-c2cccc(C#N)c2)n1 [Example 7, 1-(3-t-butyl-1-(3-cyanophenyl)-1H-pyrazol-5-yl)-3-(4-chlorophenyl)urea]
- IC50 [1]: 8.2 nM
- IC50 [2]: 5200 nM
- IC50 [3]: 870 nM

SMILES: COc1cccc(-n2nc(C(C)(C)C)cc2NC(=O)Nc2ccc(C#N)cc2)c1 [Example 16, 1-(3-t-butyl-1-(3-methoxyphenyl)-1H-pyrazol-5-yl)-3-(4-cyanophenyl)urea]
- IC50 [2]: 5900 nM
- IC50 [4]: 1300 nM
- IC50 [3]: 3400 nM

SMILES: COc1ccc(-n2nc(C(C)(C)C)cc2NC(=O)Nc2cccc(Cl)c2Cl)cc1 [Example 18, 1-[3-t-butyl-1-(4-methoxyphenyl)-1H-pyrazol-5-yl]-3-(2,3-dichlorophenyl)urea]
- IC50 [1]: 458 nM
- IC50 [2]: 830 nM
- IC50 [3]: 240 nM

SMILES: CCOC(=O)Cc1cccc(-n2nc(C(C)(C)C)cc2NC(=O)Nc2cccc(Cl)c2Cl)c1 [Example 23, ethyl 2-(3-(3-t-butyl-5-(3-(2,3-dichlorophenyl)ureido)-1H-pyrazol-1-yl)phenyl)acetate]
- IC50 [1]: 4.8 nM
- IC50 [2]: 3800 nM
- IC50 [4]: 21 nM
- IC50 [3]: 1000 nM

SMILES: Cc1ccc(NC(=O)Nc2cc(C(C)(C)C)nn2-c2cccc(CC(=O)NCC(O)CO)c2)cc1Nc1ncccn1 (stereo not drawn) [Example 38, 1-(3-t-butyl-1-(3-(2-(2,3-dihydroxypropylamino)-2-oxoethyl)phenyl)-1H-pyrazol-5-yl)-3-(4-methyl-3-(pyrimidin-2-ylamino)phenyl)urea]
- IC50 [5, 6]: 1400 nM

SMILES: CC(C)(C)c1cc(NC(=O)Nc2cccc(Cl)c2Cl)n(-c2ccc3ncccc3c2)n1 [Example 52, 1-[3-t-butyl-1-(quinolin-6-yl)-1H-pyrazol-5-yl]-3-(2,3-dichlorophenyl)urea]
- IC50 [1]: 1.8 nM
- IC50 [2]: 140 nM
- IC50 [4]: 23 nM
- IC50 [3]: 63 nM

SMILES: CC(C)(C)c1cc(NC(=O)Nc2cc(F)c(F)cc2F)n(-c2ccc3ncccc3c2)n1 [Example 53, 1-(3-t-butyl-1-(quinolin-6-yl)-1H-pyrazol-5-yl)-3-(2,4,5-trifluorophenyl)urea]
- IC50 [1]: 4.5 nM
- IC50 [2]: 360 nM
- IC50 [3]: 490 nM

SMILES: CC(C)(C)c1cc(NC(=O)Nc2cc(F)cc(F)c2F)n(-c2ccc3ncccc3c2)n1 [Example 54, 1-(3-t-butyl-1-(quinolin-6-yl)-1H-pyrazol-5-yl)-3-(2,3,5-trifluorophenyl)urea]
- IC50 [1]: 4.8 nM
- IC50 [2]: 120 nM
- IC50 [3]: 240 nM

SMILES: CC(C)(C)c1cc(NC(=O)Nc2cc(F)cc(F)c2F)n(-c2cc(CO)c3ccccc3c2)n1 [Example 65, 1-(3-t-butyl-1-(4-(hydroxymethyl)naphthalen-2-yl)-1H-pyrazol-5-yl)-3-(2,3,5-trifluorophenyl)urea]
- IC50 [1]: 3 nM
- IC50 [5, 6]: 110 nM

SMILES: CC(C)(C)c1cc(NC(=O)Nc2cccc(C#N)c2)n(-c2cc(CN)c3ccccc3c2)n1 [Example 73, 1-(1-(4-(aminomethyl)naphthalen-2-yl)-3-t-butyl-1H-pyrazol-5-yl)-3-(3-cyanophenyl)urea]
- IC50 [1]: 45 nM
- IC50 [5, 6]: 190 nM

SMILES: CC(C)(C)c1cc(NC(=O)Nc2cccc(Cl)c2Cl)n(-c2ccc3c(c2)CCN3S(C)(=O)=O)n1 [Example 108, 1-(3-t-butyl-1-(1-(methylsulfonyl)indolin-5-yl)-1H-pyrazol-5-yl)-3-(2,3-dichlorophenyl)urea]
- IC50 [1]: 1.5 nM
- IC50 [2]: 250 nM
- IC50 [4]: 9 nM
- IC50 [3]: 13 nM

SMILES: CC(C)(C)c1cc(NC(=O)Nc2cc(F)c(F)cc2F)n(-c2ccc3c(c2)CCN3S(C)(=O)=O)n1 [Example 110, 1-(3-t-butyl-1-(1-(methylsulfonyl)indolin-5-yl)-1H-pyrazol-5-yl)-3-(2,4,5-tri-fluorophenyl)urea]
- IC50 [1]: 3.4 nM
- IC50 [2]: 360 nM
- IC50 [3]: 140 nM

SMILES: Cn1ccc2cc(-n3nc(C(C)(C)C)cc3NC(=O)Nc3cccc(Cl)c3Cl)ccc21 [Example 117, 1-(3-t-butyl-1-(1-methyl-1H-indol-5-yl)-1H-pyrazol-5-yl)-3-(2,3-dichlorophenyl)urea]
- IC50 [1]: 3.2 nM
- IC50 [2]: 230 nM
- IC50 [4]: 59 nM
- IC50 [3]: 58 nM

SMILES: O=C1CCc2cc(-n3nc(C4CCCC4)cc3NC(=O)Nc3cccc(Oc4cccnc4)c3)ccc2N1 [Example 133, 1-(3-cyclopentyl-1-(2-oxo-1,2,3,4-tetrahydroquinolin-6-yl)-1H-pyrazol-5-yl)-3-(3-(pyridin-3-yloxy)phenyl)urea]
- IC50 [5, 6]: 48 nM

SMILES: CC(C)(C)c1cc(NC(=O)Nc2cccc(C#N)c2)n(-c2ccc3c(c2)CCNC3)n1 [Example 139, 1-(3-t-butyl-1-(1,2,3,4-tetrahydro-isoquinolin-6-yl)-1H-pyrazol-5-yl)-3-(3-cyanophenyl)urea]
- IC50 [5, 6]: 140 nM

SMILES: CC(C)(C)c1cc(NC(=O)Nc2cc(F)cc(C#N)c2)n(-c2ccc3c(c2)CCNC3)n1 [Example 152, 1-(3-t-butyl-1-(1,2,3,4-tetrahydroisoquinolin-6-yl)-1H-pyrazol-5-yl)-3-(3-cyano-5-fluorophenyl)urea hydrochloride]
- IC50 [5]: 570 nM

SMILES: CC(C)(C)c1cc(NC(=O)Nc2cccc(-c3ccc(N)nc3)c2)n(-c2ccc3c(c2)CCC(=O)N3)n1 [Example 160, 1-(3-(6-aminopyridin-3-yl)phenyl)-3-(3-t-butyl-1-(2-oxo-1,2,3,4-tetrahydroquinolin-6-yl)-1H-pyrazol-5-yl)urea]
- IC50 [5, 6]: 14900 nM

SMILES: CC(C)(C)c1cc(NC(=O)Nc2cccc(-c3cccnc3)c2)n(-c2ccc3c(c2)CCC(=O)N3)n1 [Example 161, 1-(3-t-butyl-1-(2-oxo-1,2,3,4-tetrahydroquinolin-6-yl)-1H-pyrazol-5-yl)-3-(3-(pyridin-3-yl)phenyl)urea]
- inhibition at 1 µM ([5]; @ 1 μM, Method A2, read-out: Abl Data (percent inhibition)): 3%

SMILES: O=C(Nc1cccc(Oc2cccnc2)c1)Nc1cc(C2CCCC2)nn1-c1ccc2[nH]c(=O)ccc2c1 [Example 164, 1-(3-cyclopentyl-1-(2-oxo-1,2-dihydroquinolin-6-yl)-1H-pyrazol-5-yl)-3-(3-(pyridin-3-yloxy)phenyl)urea]
- IC50 [5, 6]: 33 nM

SMILES: Cc1ccc(NC(=O)Nc2cc(C(C)(C)C)nn2-c2ccc3nc(N4CCNCC4)ccc3c2)cc1Nc1nccc(-c2cccnc2)n1 [Example 171, 1-(3-t-butyl-1-(2-(piperazin-1-yl)quinolin-6-yl)-1H-pyrazol-5-yl)-3-(4-methyl-3-(4-(pyridin-3-yl)pyrimidin-2-ylamino)phenyl)urea]
- IC50 [5, 6]: 4 nM

SMILES: CC(C)(C)c1cc(NC(=O)Nc2ccc(-c3cccc4c3CNC4=O)cc2)n(-c2ccc3c(c2)CC(C(=O)O)NC3)n1 (stereo not drawn) [Example 181, 6-(3-t-butyl-5-(3-(4-(1-oxoisoindolin-4-yl)phenyl)ureido)-1H-pyrazol-1-yl)-1,2,3,4-tetrahydroisoquinoline-3-carboxylic acid]
- IC50 [5, 6]: 6.6 nM

SMILES: CC(C)(C)c1cc(NC(=O)Nc2cccc(Oc3cccnc3)c2)n(-c2ccc3c(c2)CC(C(=O)NCC(O)CO)NC3)n1 (stereo not drawn) [Example 182, 1-(1-(3-((2,3-dihydroxypropyl)carbamoyl)-1,2,3,4-tetrahydroisoquinolin-6-yl)-3-t-butyl-1H-pyrazol-5-yl)-3-(3-(pyridin-3-yloxy)phenyl)urea]
- IC50 [5, 6]: 3.4 nM

SMILES: CC(C)(C)c1cc(NC(=O)Nc2ccc(-c3cccc4c3CNC4=O)cc2)n(-c2ccc3c(c2)CC(C(N)=O)NC3)n1 (stereo not drawn) [Example 183, 1-(3-t-butyl-1-(3-carbamoyl-1,2,3,4-tetrahydroisoquinolin-6-yl)-1H-pyrazol-5-yl)-3-(4-(1-oxoisoindolin-4-yl)phenyl)urea]
- IC50 [5, 6]: 20 nM

SMILES: CC(C)(C)c1cc(NC(=O)Nc2cccc(Oc3cccnc3)c2)n(-c2ccc3c(c2)CCNC3C(=O)NCC(O)CO)n1 (stereo not drawn) [Example 184, 1-(1-(1-((2,3-dihydroxypropyl)carbamoyl)-1,2,3,4-tetrahydroisoquinolin-6-yl)-3-t-butyl-1H-pyrazol-5-yl)-3-(3-(pyridin-3-yloxy)phenyl)urea]
- IC50 [5, 6]: 10 nM

SMILES: CC(C)(C)c1cc(NC(=O)Nc2cccc(Cl)c2Cl)n(-c2ccc3c(c2)CC(C(N)=O)NC3)n1 (stereo not drawn) [Example 188, 1-(3-t-butyl-1-(3-carbamoyl-1,2,3,4-tetrahydroisoquinolin-6-yl)-1H-pyrazol-5-yl)-3-(2,3-dichloro-phenyl)urea]
- IC50 [1]: 5.8 nM
- IC50 [2]: 110 nM
- IC50 [4]: 17 nM
- IC50 [3]: 150 nM

SMILES: CC(C)(C)c1cc(NC(=O)Nc2ccc(-c3cccc4c3CNC4=O)cc2)n(-c2ccc3c(c2)CCN3)n1 [Example 191, 1-(3-t-butyl-1-(indolin-5-yl)-1H-pyrazol-5-yl)-3-(4-(1-oxoisoindolin-4-yl)phenyl)urea]
- IC50 [5, 6]: 21 nM

SMILES: CC(C)(C)c1cc(NC(=O)Nc2ccc(-c3cccc4c3CNC4=O)cc2)n(-c2ccc3c(c2)CCN3S(C)(=O)=O)n1 [Example 192, 1-(3-t-butyl-1-(1-(methylsulfonyl)indolin-5-yl)-1H-pyrazol-5-yl)-3-(4-(1-oxoisoindolin-4-yl)phenyl)urea]
- IC50 [5, 6]: 27 nM

SMILES: CC(C)(C)c1cc(NC(=O)Nc2cccc(Cl)c2Cl)n(-c2ccc3c(=O)[nH]cnc3c2)n1 [Example 194, 1-(3-t-butyl-1-(4-oxo-3,4-dihydroquinazolin-7-yl)-1H-pyrazol-5-yl)-3-(2,3-dichlorophenyl)urea]
- IC50 [5, 6]: 540 nM
